Entries after “also recorded” stand apart in the source; their conditions may differ.
Columns and labels:
rectal mucosa = assay: Proliferation in the rectal mucosa of rectally defunctioned rats (metaphase-arrested cells); assay type: in vivo; details: DFO 400 mg/kg intraperitoneally thrice weekly, 4 weeks; Ggly 2.5 nmol/kg/hr
Description: DFO (400 mg/kg) was administered intraperitoneally thrice weekly, and bismuth ions were administered as colloidal bismuth subcitrate (135 mg/kg/12 hours) by oral gavage 5 days per week. After 4 weeks, the rats were injected with vincristine to arrest cycling cells in metaphase, and sacrificed 3 hrs later. Crypt heights in the rectal mucosa, and the number of metaphase arrested cells per crypt, were then determined microscopically.

IMGE-5 cells [1] = assay: Wound healing / cell migration assay; assay type: cell-based, mice
Description: The IMGE-5 cell line was established from the gastric mucosa of mice transgenic for a temperature-sensitive mutant of the SV40 large T antigen (Hollande et al, 2001). IMGE-5 cells were generally grown at 33° C. in DMEM containing 1 unit/ml γ-interferon, 10% FBS, 100 U/ml penicillin, and 100 μg/ml streptomycin (permissive conditions). For all experiments, cells were transferred to 39° C. in the same medium without […] (non-permissive conditions), where they display differentiated characteristics such as expression of functional adherens and tight junctions. All experiments have been performed on cells between passages 20 and 35.
In order to assess the effects of different stimuli on cell migration, wound healing experiments were performed as detailed elsewhere (Hollande et al, 1997). In brief, IMGE-5 cells were grown in 12-well plates in DMEM at 33° C. until they reached 80% confluence, then shifted to 39° C. and starved of serum for 24 h. The confluent monolayer was wounded using a 20 μl-pipette tip, and cells were then washed 3 times with phosphate-buffered saline (PBS: 2.7 mM KCl, 1.5 MM KH2PO4, 142 mM NaCl, and 10 mM Na2HPO4, pH 6.95) and treated with or without different compounds in DMEM with antibiotics. Morphology and migration of cells were observed and photographed immediately, and after treatment for 17 and 24 h. Wound width was measured at six different positions on the 24 h photographs, and averages calculated.

hepatoma cell lines = details: Kicic et al, 2001; cited from earlier work
IMGE-5 cells [2] = assay: IMGE-5 cell proliferation, MTT assay; assay type: cell-based, mice; details: DFO 1 μM
CCK-2 receptor = target: T1, CCK-2 receptor (Homo sapiens, UniProt P32239); assay: Gamide-stimulated inositol phosphate production in COS-7 cells transfected with the CCK-2 receptor; assay type: cell-based; design: COS-7 cells transiently transfected with CCK-2 receptor cDNA; expressed in transfected cells; host or cells: COS-7; details: 1 μM DFO, 10 nM Gamide
T1 sequence (P32239 1-447): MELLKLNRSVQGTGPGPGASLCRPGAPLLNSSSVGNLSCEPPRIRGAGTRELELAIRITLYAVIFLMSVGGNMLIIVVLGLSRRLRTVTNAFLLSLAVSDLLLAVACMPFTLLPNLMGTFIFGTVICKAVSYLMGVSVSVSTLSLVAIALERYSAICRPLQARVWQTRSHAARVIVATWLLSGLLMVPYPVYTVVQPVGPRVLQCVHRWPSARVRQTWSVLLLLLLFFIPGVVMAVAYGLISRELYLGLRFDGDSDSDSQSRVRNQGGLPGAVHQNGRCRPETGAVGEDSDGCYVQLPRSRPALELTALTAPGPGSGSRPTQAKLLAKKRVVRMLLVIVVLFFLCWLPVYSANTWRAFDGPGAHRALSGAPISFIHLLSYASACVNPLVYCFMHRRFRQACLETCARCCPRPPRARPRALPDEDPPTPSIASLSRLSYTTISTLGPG
Description: Intracellular inositol phosphate production was determined as described previously (Qian et al, 1993). IMGE-5 cells (10^5 cells/ml) were plated in 24-multiwell culture plates in DMEM supplemented with 10% FBS, 200 IU/ml penicillin and 200 μg/ml streptomycin. 24 h later, cells were incubated with DMEM supplemented with antibiotics and Myo-[2-^3H]inositol (2.5 μCi/well) and shifted to 39° C. for 16 h. Cells were then washed with pre-warmed DMEM and incubated (20-30 minutes, 37° C.) with DMEM supplemented with 20 mM LiCl. Loaded cells were then washed in 1 ml of IP buffer (135 mM NaCl, 20 mM N-(2-hydroxyethyl)piperazine-N′-(2-ethanesulfonic acid), 2 mM CaCl2, 1.2 mM MgSO4, 1 mM ethylene glycol-bis(2-aminoethylether)-N,N,N′,N′-tetraacetic acid, 10 mM LiCl, and 0.5% bovine serum albumin, pH 7.45) and incubated with or without agonist in a final volume of 0.5 ml of IP buffer. After 1-h incubation at 37° C., the reaction was stopped by removing the incubation medium and adding 1 ml of a mixture of ethanol/HCl (2000:1; v/v). One ml of each aliquot was applied to a column containing 1.6 ml of a 1:2 (v/v) Dowex AG-1-X8 anion exchange resin in distilled water. The columns were washed with 4 ml of distilled water, followed by 4 ml of 40 mM HCOONH4, and inositol phosphates were eluted with 4 ml of 1 M HCOONH4. The radioactivity of each eluate was counted after addition of Complete phase combining system solution (Amersham, UK). For the positive control, IMGE-5 cells were incubated with a combination of 30 mM NaF and 10 μM AlCl3 under the same experimental conditions.
Gamide-stimulated inositol phosphate production was measured in COS-7 cells transfected with the CCK-2 receptor. […] Bismuth ions alone had no effect on inositol phosphate production in CCK-2 receptor-transfected COS-7 cells and HT29 cells, even at the highest concentration tested.
We then investigated the role of the individual glutamates in biological activity. The effects of the mutants GamideE7A and GamideE8,9A on inositol phosphate production in COS-7 cells transiently transfected with the CCK-2 receptor were compared.

human hepatomas = details: Hann et al, 1992; cited from earlier work
IMGE-5 cells [3] = assay: IMGE-5 cell proliferation, [3H]-thymidine incorporation; assay type: cell-based, mice
Description: In some cases cell proliferation was also measured by [^3H]-thymidine incorporation as described previously (Oiry et al., 2000). Briefly, IMGE-5 cells (10^5/well) were seeded in 24-well plates in medium containing 10% FBS and 1 unit/ml γ-interferon. On the next day cells were serum starved and shifted to 39° C. for 24 hr. Cells were then incubated with or without various compounds at 39° C. for 17 h in medium supplemented with 0.2% bovine serum albumin only. Cells were incubated with 0.5 μCi of [^3H] thymidine in the same medium at 39° C. for 4 h, washed twice with PBS (2.7 mM KCl, 142 mM NaCl, 1.5 mM KH2PO4, 10 mM Na2HPO4, pH 6.95) containing 0.2% bovine serum albumin and incubated at 4° C. for 30 min with 5% trichloroacetic acid. Finally cells were washed with 95% ethanol to remove unincorporated [^3H] thymidine, and lysed with 1 M NaOH. Lysates were transferred to counting vials and neutralized with 1M HCl. The radioactivity of each lysate was counted in a β-counter after the addition of 10 ml of Pico-fluor 40 solution (Packard, Meriden, Conn.).
In some experiments IMGE-5 cells were seeded in a 96-well plate at a density of 3-5×10^3 cells/well in.DMEM containing 10% FBS, and cultured at 33° C.. On the following day, the cells were serum-starved at 33° C. for 24 h. […] The cells were cultured at 39° C. for 24 h, and then harvested using a NUNC cell harvester. The amount of ^3H-thymidine incorporated through DNA synthesis was detected with a β-counter (Packard, Meriden, Conn.). […]

[4] = 1H NMR titration of Ggly fragments with ferric citrate; assay type: binding; details: pH 5.3, 278 K, read-out: Apparent Kd for ferric ions from shift of the Glu10 amide resonance
Description: The peptides LE5AYG, LE5A, E5AY and E5A (approximately 2 mM) were dissolved in H2O with 5 or 10% ^2H2O. […] Sequence-specific ^1H NMR resonance assignments were made from two-dimensional nuclear Overhauser enhancement spectroscopy (NOESY) and total correlation spectroscopy (TOCSY).
The apparent dissociation constants, Kd, for the complexes between ferric ions and the nonapeptide LE5AYG or the octapeptide LE5AY were obtained from the change in chemical shift of the Glu10 amide proton on addition of ferric citrate using the program Sigmaplot (Jandel Scientific, San Rafael, Calif.), by linear regression of the data to the equation 1/δ=Kd/Δ·1/[Fe^3+]+1/Δ where δ is the change in chemical shift, Δ is the maximum change in chemical shift, and [Fe^3+] is the concentration of added ferric ions. Measurement of Inositol Phosphate Production
In order to define the ligands involved in ferric ion binding, we next investigated the effect of ferric ions on the NMR spectra of the peptides. Ferric ion titration experiments were carried out by addition of 20, 50, or 200 mM ferric citrate solution to the peptides. The pH was maintained at 5.3 by addition of small amounts of NaO^2H or ^2HCl. Concentration, pH, temperature and use of ferrric citrate were in keeping with the conditions that were employed in earlier examples in order to prevent precipitation of peptide or ferric hydroxide. […]

Row | Effect on Gamide-stimulated inositol phosphate production (CCK-2 receptor) | Kd [4] | Compound | Effect on stimulation of proliferation of the rectal mucosa by Ggly (rectal mucosa) | Effect on Ggly-stimulated IMGE-5 cell migration (IMGE-5 cells [1]; DFO 1 μM) | Inhibition of proliferation of hepatoma cell lines in vitro (hepatoma cell lines) | Effect on Ggly-stimulated IMGE-5 cell proliferation (IMGE-5 cells [2]; MTT and thymidine assays) | Reduction of Gamide-stimulated IMGE-5 cell proliferation (IMGE-5 cells [2]; MTT, 72 h) | Inhibition of human hepatomas (human hepatomas) | S (%), maximum % stimulation (IMGE-5 cells [3]; IMGE cells, thymidine uptake, best fit at saturating concentration) | Stimulation of proliferation of IMGE cells (IMGE-5 cells [3]; incorporation of [3H]-thymidine) | Effect of DFO on proliferation induced by the peptide (IMGE-5 cells [3]; peptide 100 nM, plus or minus 1 μM DFO, [3H]-thymidine incorporation) | Stimulation of cell migration compared with Ggly (IMGE-5 cells [1]; 100 nM peptide, 24 h) | Effect of DFO on peptide-stimulated migration (IMGE-5 cells [1]; 100 nM peptide, DFO in the medium)
1 | had no effect | – | CC(=O)N(O)CCCCCNC(=O)CCC(=O)N(O)CCCCCNC(=O)CCC(=O)N(O)CCCCCN [DFO, desferrioxamine] | significantly reduced | completely blocked | effective inhibitors | completely blocked | 60% | effective inhibitor | – | – | – | – | –
2 | – | 7 mM | LEEEEEAYG [LE5AYG] | – | – | – | – | – | – | 45.8% | significantly stimulated proliferation | completely blocked; also recorded: significantly blocked by DFO | more effective than Ggly | reversed by inclusion of DFO

Reference: patent publication US20070031511A1, “Method of treatment” (priority 2003, published 2007)
